Experimental data taken from PMC9880178, “Cecropin D-derived synthetic peptides in the fight against Candida albicans cell filamentation and biofilm formation” (Frontiers in Microbiology, 2023).
Like-named read-outs stand apart in the source and are kept apart here. Where no end group is shown, it is not given here.

Tests used:
[1] = tested on: C. albicans cells; test: microbe, parasite or virus in culture; settings: for IC90: 24 h; for FICI: combination of peptide with caspofungin
Experimental: To determine the viability of C. albicans, the 2,3-bis(2-methoxy-4-nitro-5-sulfo-phenyl)-2H-tetrazolium-5-carboxanilide (XTT) (ThermoFisher Scientific) reduction assay is used as a routine tool for quantitative measurement of fungal metabolic activity, growth and response to antifungal treatment ([van Dijck et al., 2018]). The tests were performed as described ([Kulig et al., 2022]) with some modifications. Briefly, 100 μl of RPMI 1640 medium without phenol red (Biowest) and 50 μl of XTT solution (1 mg/ml; Invitrogen, Waltham, MA, United States), freshly activated with phenazine methosulfate (5 μg/ml; Sigma-Aldrich) in the same medium, were added to C. albicans cells. After 40 min of incubation at 37°C in the dark, 100 μl of supernatants were transferred to the wells of a new 96-well microplate (Sarstedt, Nümbrecht, Germany). The absorbance of the formazan product was measured spectrophotometrically at 450 nm using a Synergy H1 microplate reader (BioTek Instruments, Winooski, VT, United States).
The following concentrations of peptides and antifungal drugs were used for the assay: ΔM3 0.4–50 μM, ΔM4 0.4–3.1 μM, amphotericin B 0.2–1.6 μM, fluconazole 0.2–1.6 μM and caspofungin 0.003–0.2 μM (the latter two from Sigma-Aldrich). The combinatory effects of each peptide and each conventional antimycotic drug were tested by the previously described checkerboard method ([Guo et al., 2008]; [Do Nascimento Dias et al., 2020]) with minor modification. C. albicans cells (3 × 10^2) were suspended in 100 μl of RPMI 1640 medium, containing peptide, drug, or their combination, in wells of Falcon® 96-well clear flat bottom TC-treated culture microplate (Corning). Fungal cells only in RPMI 1640 medium without peptides and drugs served as a control. Incubation was carried out for 24 h at 37°C in an atmosphere of 5% CO2 and 95% humidity without shaking. After this time, cell viability was measured using an XTT reduction assay. The analysis was performed in biological triplicate. For each combination, Fractional Inhibitory Concentration Index (FICI) was determined using the following formula: […]
Where FICa is the ratio of IC90 value for the compound a in combination to the IC90 value of the agent a alone; FICb is the ratio of IC90 value for compound b in combination to the IC90 value of the agent b alone.
The FICI ≤0.5 was interpreted as a synergistic effect, 0.5< FICI ≤1.0 as additive, 1.0< FICI ≤2.0 as indifferent and FICI >2.0 as antagonism.

[2] = tested on: mitochondria of C. albicans biofilm cells; test: Mitochondrial activity, MitoTracker Orange / MitoTracker Green; format: cell-based, Candida albicans; settings: 50 μM ΔM3, 6.2 μM ΔM4 or 2.7 μM amphotericin B, 3 h, 24-h biofilm
Experimental: The 24-h biofilms of C. albicans were incubated with 100 μl of ΔM3 (50 μM) or ΔM4 (6.2 μM) and amphotericin B (2.7 μM; positive control) solutions in RPMI 1640 medium for 3 h at 37°C. After that time, biofilms were washed with 200 μl of PBS and incubated for 30 min at 37°C with MitoTracker Green TM dye (Invitrogen) at final concentration of 500 nM, used to detect the change in total mitochondrial mass, and MitoTracker Orange (500 nM), used to detect the change in mitochondrial activity. Mitochondria were imaged in the FITC and TRIC channel, using the Olympus IX73 microscope.

[3] = tested on: cytosolic Ca2+ in C. albicans biofilm; test: Cytosolic Ca2+, Fura-2 Calcium Flux Assay; format: cell-based, Candida albicans; settings: 10 mM, positive control, 3 h, 24-h biofilm
Experimental: Accumulation of cytosolic Ca^2+ was measured with the Fura-2 Calcium Flux Assay Kit (Abcam, Cambridge, Great Britain). The 24-h biofilms of C. albicans were incubated for 3 h with 100 μl of ΔM3 (25 μM and 50 μM) or ΔM4 (6.2 μM and 12.5 μM) and H2O2 (10 mM; positive control) solutions prepared in RPMI 1640. The concentration of peptides was chosen close to those for which the effect of apoptosis was obtained in experiments analyzing the activity of metacaspases. After incubation, biofilms were washed with Hanks Balanced Salt Solution (Biowest) with Pluronic® F127 Plus (Abcam). Then 100 μl of Fura-2 AM solution was added to the biofilms and incubated for 1 h at room temperature. The fluorescence was then measured using a Synergy H1 microplate reader with excitation at 340 nm and emission at 510 nm.

[4] = tested on: human erythrocytes; settings: cited from earlier work
Text: Promising antimicrobial properties were also previously reported for the cecropin D-like peptide (UniProtKB accession number: P85210) from the greater wax moth Galleria mellonella ([Cytrynska et al., 2007]). Modification of particular residues resulting in an increase of peptide charge and basic residues on the polar face of the molecule compared to a neutral wild-type peptide, enhanced the antibacterial activity of peptides derived from the cecropin D-like natural sequence. One such type of derivative was the synthetic cationic peptide ΔM2 with 39 amino acid residues and a charge of +9, which ...

[5] = Candida albicans, read-out: IC90, compound acting alone
[6] = drug (compound a) in combination with ΔM3
[7] = drug (compound a) in combination with ΔM4

C[C@@H]1[C@H](O)[C@@H](C)/C=C/C=C/C=C/C=C/C=C/C=C/C=C/[C@H](O[C@@H]2O[C@H](C)[C@@H](O)[C@H](N)[C@@H]2O)C[C@@H]2O[C@](O)(C[C@@H](O)C[C@@H](O)[C@H](O)CC[C@@H](O)C[C@@H](O)CC(=O)O[C@H]1C)C[C@H](O)[C@H]2C(=O)O [Amphotericin B, amphotericin B]
IC90 [1, 5]: 1600 nM
FICa [1, 6]: 0.5
FICa [1, 7]: 0.5
mitochondrial activity (MitoTracker Orange fluorescence) [2]: partial loss of mitochondrial activity

CC[C@H](C)C[C@H](C)CCCCCCCCC(=O)N[C@H]1C[C@@H](O)[C@@H](NCCN)NC(=O)[C@@H]2[C@@H](O)CCN2C(=O)[C@H]([C@H](O)CCN)NC(=O)[C@H]([C@H](O)[C@@H](O)c2ccc(O)cc2)NC(=O)[C@@H]2C[C@@H](O)CN2C(=O)[C@H]([C@@H](C)O)NC1=O [Caspofungin, caspofungin]
IC90 [1, 5]: 100 nM
FICa [1, 6]: 0.03
FICa [1, 7]: 0.12

OC(Cn1cncn1)(Cn1cncn1)c1ccc(F)cc1F [Fluconazole, fluconazole]
IC90 [1, 5]: 800 nM
IC90 in combination with each peptide compared to administered alone ([1]; combination with ΔM3 or ΔM4): four-fold lower
FICa [1, 6]: 0.25
FICa [1, 7]: 0.25

OO [H2O2]
increase in cytosolic Ca2+ concentration [3]: up to 50%

NFFKRIRRAGKRIRKAIISA [ΔM3]
IC90 ([1]; cells): 50000 nM
FICI [1]: 0.062
hemolytic activity [4]: low

NFFKRIRRAWKRIWKWIYSA [ΔM4]
IC90 ([1]; cells): 3100 nM
FICI [1]: 0.370
